{"source": "patent US20130022620A1", "about": "“ASSAYS AND METHODS PERTAINING TO PRE-AMYLOID INTERMEDIATES” (priority 2011, published 2013)", "key": {"mouse pancreatic islets": {"test_system": "mouse pancreatic islets", "test": "AlamarBlue cell viability assay of pancreatic islets", "assay_type": "cell-based", "conditions": "FVB"}, "[1]": {"test": "Thioflavin-T kinetics and TEM of amyloid formation by IAPP peptides", "assay_type": "physicochemical", "conditions": "wild type IAPP under the conditions described", "protocol": "Thioflavin-T fluorescence was used to monitor the time course of h-IAPP amyloid formation in the presence and absence of sRAGE. To identify which form(s) of h-IAPP interact with RAGE, sRAGE was added to h-IAPP at various time points during the h-IAPP amyloid formation reaction. Aliquots of the reaction mixture were analyzed by adding 100 uL aliquots of the amyloid formation reaction to 96-well plates containing 8 uL of 60 uM thioflavin-T solution at various incubation times after initiation of the amyloid formation reaction. Fluorescence was measured using a Beckman Coulter DTX880 fluorescent plate reader (excitation: 445 nm and emission: 485 nm). Final solution conditions contained 16 mM tris HCl and […] thioflavin-T (pH 7.4). […] All values represent means±SEM (n=3).\nTransient kinetic species of h-IAPP were characterized by TEM. TEM images confirm the presence or absence of amyloid which were indicated by thioflavin-T fluorescence. Aliquots (4 μl) were removed from the reaction mixtures monitored by thioflavin-T assays, placed on a carbon-coated 200-mesh copper grid and negatively stained with saturated uranyl acetate. The samples were imaged with a Philips CM12 transmission electron microscope at the New York University electron microscopy core facility. Final solution conditions contained 16 mM tris HCl (pH 7.4)."}, "[2]": {"test_system": "mouse aortic smooth muscle cells", "test": "AlamarBlue cell viability assay of aortic smooth muscle cells", "assay_type": "cell-based", "protocol": "Mouse vascular SMCs were cultured from the aortas of 10-week-old male mice using a modification of the procedure of Tarvo and Barret. See Tarvo et al. Blood Vessels. 1980; 17:110-116. SMCs were cultured following an explant protocol in accordance with institutional guidelines. […] Cyto-toxicity was measured by AlamarBlue assay. INS-1 β-cells were seeded at a density of 30,000 cells per well in 96-well plates and cultured for 24 hours prior to stimulation with IAPP. Human and rat IAPP were dissolved and incubated in 16 mM tris HCl (pH 7.4, 25° C.) prior to cell stimulation. AlamarBlue was diluted ten-fold in culture media and cells were incubated for 5 hours at 37° C. Fluorescence (excitation 530; emission 590 nm) was measured on a Beckman Coulter DTX880 fluorescent plate reader. Values calculated were relative to those of control cells treated with buffer only. All values represent means±SEM (n=3)."}, "[3]": {"test_system": "MCP-1 and IL-1β mRNA expression", "test": "qRT-PCR of MCP-1 and IL-1β mRNA in β-cells", "assay_type": "cell-based, rat", "conditions": "β-cells stimulated with peptide", "protocol": "(§1) Assays for qRT-PCR were carried out in 6-well plates. Total cellular RNA was isolated from h-IAPP stimulated β-cells using Qiagen RNA isolation kit, and the quality of RNA samples was determined by measurement of 260:280 ratio. Only samples with a 260:280 ratio of 2.0 or higher were used for reverse transcription. RNA samples were also treated by RNAse-free DNAse to avoid genomic DNA contamination. One microgram of RNA from each sample was reverse-transcribed to cDNA using MCP-1 and IL-1β primers. Non-template negative controls were also performed to monitor non-specific reactions. RNA isolated from rat IAPP and non-h-IAPP treated beta cells were used as negative controls. Equal amounts of RNA were used in each qRT-PCR reaction, and 18S was used as the internal control for amplification at the same time. qRT-PCR reactions were carried out using an Applied Biosystems 7500 RealTime PCR machine. The relative mRNA contents were normalized using 18S and quantification was carried out using qRT-PCR Quantifier Software."}, "[4]": {"test_system": "MCP-1 and IL-1β mRNA expression", "test": "qRT-PCR of MCP-1 and IL-1β mRNA in smooth muscle cells", "assay_type": "cell-based, mouse", "conditions": "peptide stimulation", "protocol": "Mouse vascular SMCs were cultured from the aortas of 10-week-old male mice using a modification of the procedure of Tarvo and Barret. See Tarvo et al. Blood Vessels. 1980; 17:110-116. SMCs were cultured following an explant protocol in accordance with institutional guidelines. Cultures were composed of 95% SM-α-actin positivity based on immunostaining.\nas §1"}, "rat INS-1 β-cells": {"test_system": "rat INS-1 β-cells", "test": "AlamarBlue cell viability assay of β-cells", "assay_type": "cell-based", "protocol": "Transformed rat insulinoma-1 (INS-1) β-cells (which express RAGE) are a pancreatic beta cell line commonly used for studies of h-IAPP induced toxicity. INS-1 cells were grown in RPMI 1640 supplemented with 10% fetal bovine serum (FBS), 11 mM glucose, 10 mM Hepes, 2 mM L-glutamine, 1 mM sodium pyruvate, 50 μM β-mercaptoethanol, 100 U/ml penicillin, and […] streptomycin. Cells were maintained at 37° C./5% CO2.\nCyto-toxicity was measured by AlamarBlue assay. INS-1 β-cells were seeded at a density of 30,000 cells per well in 96-well plates and cultured for 24 hours prior to stimulation with IAPP. Human and rat IAPP were dissolved and incubated in 16 mM tris HCl (pH 7.4, 25° C.) prior to cell stimulation. AlamarBlue was diluted ten-fold in culture media and cells were incubated for 5 hours at 37° C. Fluorescence (excitation 530; emission 590 nm) was measured on a Beckman Coulter DTX880 fluorescent plate reader. Values calculated were relative to those of control cells treated with buffer only. All values represent means±SEM (n=3).\nChanges in cell morphology were examined by light microscopy to provide a second method of evaluating cell viability. Transformed rat INS-1 beta cells were photographed immediately prior to assessment of toxicity by Alamar blue cell viability assays. Images were taken using an Olympus BX-61 light microscope."}}, "data": [{"smiles": "CC[C@H](C)[C@H](NC(=O)[C@H](C)NC(=O)CNC(=O)[C@H](Cc1ccccc1)NC(=O)[C@H](CC(N)=O)NC(=O)[C@H](CC(N)=O)NC(=O)[C@H](CO)NC(=O)[C@H](CO)NC(=O)[C@H](Cc1c[nH]cn1)NC(=O)[C@@H](NC(=O)[C@H](CC(C)C)NC(=O)[C@H](Cc1ccccc1)NC(=O)[C@H](CC(N)=O)NC(=O)[C@H](C)NC(=O)[C@H](CC(C)C)NC(=O)[C@H](CCCNC(=N)N)NC(=O)[C@H](CCC(N)=O)NC(=O)[C@@H](NC(=O)[C@H](C)NC(=O)[C@@H]1CSSC[C@H](NC(=O)[C@@H](N)CCCCN)C(=O)N[C@@H](CC(N)=O)C(=O)N[C@@H]([C@@H](C)O)C(=O)N[C@@H](C)C(=O)N[C@@H]([C@@H](C)O)C(=O)N1)[C@@H](C)O)C(C)C)C(=O)N[C@@H](CC(C)C)C(=O)N[C@@H](CO)C(=O)N[C@@H](CO)C(=O)N[C@H](C(=O)N[C@@H](CC(N)=O)C(=O)N[C@H](C(=O)NCC(=O)N[C@@H](CO)C(=O)N[C@@H](CC(N)=O)C(=O)N[C@H](C(=O)N[C@@H](Cc1ccc(O)cc1)C(N)=O)[C@@H](C)O)C(C)C)[C@@H](C)O", "note": "[h-IAPP, human islet amyloid polypeptide]", "values": [{"measurement": "loss in viability relative to buffer treatment alone", "setting": "mouse pancreatic islets", "value": 50, "unit": "%"}, {"measurement": "time at which the amyloid formation reaction reaches saturation", "setting": "[1]", "value": "about 40 hrs"}, {"measurement": "toxicity to smooth muscle cells", "setting": "[2]; h-IAPP intermediates", "value": "toxic to smooth muscle cells"}, {"measurement": "toxicity to RAGE-null versus wild type SMCs", "setting": "[2]; increasing amounts of h-IAPP toxic species", "value": "genetic deletion of RAGE protects SMCs from h-IAPP toxicity compared to WT SMCs"}, {"measurement": "MCP-1 and IL-1β mRNA expression", "setting": "[3]", "value": "increase in MCP-1 and IL-1β mRNA expression"}, {"measurement": "MCP-1 and IL-1β mRNA expression in smooth muscle cells", "setting": "[4]", "value": "increase in MCP-1 and IL-1β mRNA expression"}, {"measurement": "cell toxicity of amyloid fibrils", "setting": "rat INS-1 β-cells; amyloid fibrils added to cultured cells", "value": "No toxicity was observed"}, {"measurement": "cell toxicity (AlamarBlue cell viability, light microscopy)", "setting": "rat INS-1 β-cells; peptide incubated in buffer at room temperature for various times, then applied to INS-1 β-cells", "value": "maximum toxicity was observed at intermediate time points"}, {"measurement": "toxicity of resuspended pellet after ultracentrifugation", "setting": "rat INS-1 β-cells; resuspended pellet added to beta cells", "value": "the resuspended pellet is not"}, {"measurement": "toxicity of soluble phase after ultracentrifugation", "setting": "rat INS-1 β-cells; supernatant added to beta cells", "value": "toxic to beta cells"}]}]}
